Test results: doi:10.1101/212431v1, “Genetic variation across the human olfactory receptor repertoire alters odor perception” (biorxiv, 2017)

Biological target: T1, OR11A1 (reference haplotype MA) (Homo sapiens, UniProt Q9GZK7)
T1 construct: Hana3A cells co-transfected with RTP1S and M3-R
T1 sequence (Q9GZK7 1-315): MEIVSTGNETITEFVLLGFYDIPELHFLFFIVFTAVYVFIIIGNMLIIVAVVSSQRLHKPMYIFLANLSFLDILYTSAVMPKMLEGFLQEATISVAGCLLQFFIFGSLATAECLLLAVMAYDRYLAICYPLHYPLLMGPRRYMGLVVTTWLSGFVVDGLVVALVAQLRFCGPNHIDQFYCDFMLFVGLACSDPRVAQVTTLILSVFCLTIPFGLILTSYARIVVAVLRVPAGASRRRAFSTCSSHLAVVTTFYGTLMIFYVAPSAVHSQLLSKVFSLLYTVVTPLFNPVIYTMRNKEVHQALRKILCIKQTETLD
Assay: CRE-luciferase reporter assay in Hana3A cells
Type: cell-based
Conditions: read-out: log(EC50 of reference MA) (converted)

EC50: 158 nM
Structure (SMILES): CCC1(O)C2(C)CCC(C2)C1(C)C (stereo not shown) [2-ethylfenchol]
